Experimental data reported in patent publication US9663507B1, “Crystallisation of thiamine hydrochloride” (Topchem Pharmaceuticals Limited, priority 2016, dated 2017).
Structures can show the parent of a compound that is named as a salt. Where two headings read alike, the source gives them in different places. Blank lines part the entries; values can stand above or below the molecule they belong to.

How the values were obtained:
[1] = exposure to humidity, cited from earlier work
[2] = for Related Substances: Chlorothiamine (Impurity C) / Related Substances: Thiamine sulfate ester (Impurity A) / Related Substances: Desmethylthiamine (Impurity B) / Related Substances: Total Impurities: EP 8.6 HPLC Method; for Related Substances: Chlorothiamine (Impurity C) / Related Substances: Thiamine sulfate ester (Impurity A): limit NMT 0.15%; for Related Substances: Desmethylthiamine (Impurity B): limit NMT 0.3%; for Related Substances: Total Impurities: limit NMT 0.5%; for Assay: limit 98.0%-102.0%; for Sulfates: limit EP 8.6 NMT 300 ppm; for Solution S: limit EP 8.6 Practically Clear and Odorless; for Heavy Metals / Appearance: limit Meets EP 8.6; for ID: Chloride / ID: FTIR / Limit of Nitrate: limit Meets USP 39; for Absorbance of Solution: limit USP 39 NMT 0.025 Abs; for Residue on Ignition: limit USP 39 NMT 0.2%; for Water: limit USP 39 NMT 5.0%; for pH: limit USP 39 pH 2.7-3.4
[3] = cited from earlier work
[4] = 36 Months, listed as T111116, hydrochloride monohydrate
[5] = 36 Months, listed as T111201, hydrochloride monohydrate
[6] = 36 Months, listed as T111202, hydrochloride monohydrate
[7] = Time 0, listed as T111116, hydrochloride monohydrate
[8] = Time 0, listed as T111201, hydrochloride monohydrate
[9] = Time 0, listed as T111202, hydrochloride monohydrate

SMILES: Cc1ncc(C[n+]2csc(CCO)c2C)c(N)n1 [Example 1, Thiamine Hydrochloride Hemihydrate]
Hygroscopicity ([1]; Hydrochloride Hemihydrate): less hygroscopic

Related Substances: Chlorothiamine (Impurity C) ([2]; 36 Months): <0.05%
Related Substances: Thiamine sulfate ester (Impurity A) ([2]; 36 Months): 0.07%
Related Substances: Desmethylthiamine (Impurity B) [2, 4]: 0.07%
Related Substances: Desmethylthiamine (Impurity B) [2, 5]: 0.07%
Related Substances: Desmethylthiamine (Impurity B) [2, 6]: 0.06%
Related Substances: Total Impurities [2, 4]: 0.13%
Related Substances: Total Impurities [2, 5]: 0.14%
Related Substances: Total Impurities [2, 6]: 0.13%
Assay [2, 4]: 99.8%
Assay [2, 5]: 99.6%
Assay [2, 6]: 99.1%
Sulfates ([2]; 36 Months): Complies
Solution S ([2]; 36 Months): Complies
Heavy Metals ([2]; 36 Months): Complies
Appearance ([2]; 36 Months, sealed foil lined polypropylene bags): Complies
ID: Chloride ([2]; 36 Months): Complies
ID: FTIR ([2]; 36 Months): Complies
Limit of Nitrate ([2]; 36 Months): Complies
Absorbance of Solution [2, 4]: 0.004 Abs
Absorbance of Solution [2, 5]: 0.013 Abs
Absorbance of Solution [2, 6]: 0.007 Abs
Residue on Ignition ([2]; 36 Months): 0.0%
Water [2, 4]: 3.7%
Water [2, 5]: 2.7%
Water [2, 6]: 4.0%
pH [2, 4]: pH 2.9
pH [2, 5]: pH 3.0
pH [2, 6]: pH 3.1
Related Substances: Chlorothiamine (Impurity C) ([2]; Time 0): <0.05%
Related Substances: Thiamine sulfate ester (Impurity A) [2, 7]: <0.05%
Related Substances: Thiamine sulfate ester (Impurity A) [2, 8]: 0.07%
Related Substances: Thiamine sulfate ester (Impurity A) [2, 9]: 0.06%
Related Substances: Desmethylthiamine (Impurity B) [2, 7]: <0.05%
Related Substances: Desmethylthiamine (Impurity B) [2, 8]: 0.07%
Related Substances: Desmethylthiamine (Impurity B) [2, 9]: 0.06%
Related Substances: Total Impurities [2, 7]: Complies
Related Substances: Total Impurities [2, 8]: 0.4%
Related Substances: Total Impurities [2, 9]: 0.12%
Assay [2, 7]: 99.0%
Assay [2, 8]: 98.6%
Assay [2, 9]: 99.2%
Sulfates ([2]; Time 0): Complies
Solution S ([2]; Time 0): Complies
Appearance ([2]; Time 0): Complies
Heavy Metals ([2]; Time 0): Complies
ID: Chloride ([2]; Time 0): Complies
ID: FTIR ([2]; Time 0): Complies
Limit of Nitrate ([2]; Time 0): Complies
Absorbance of Solution [2, 7]: 0.005 Abs
Absorbance of Solution [2, 8]: 0.008 Abs
Absorbance of Solution ([2]; Time 0, unit printed as %): 0.007%
Residue on Ignition ([2]; Time 0): 0.0%
Water [2, 7]: 3.2%
Water [2, 8]: 2.0%
Water [2, 9]: 3.3%
pH [2, 7]: pH 3.3
pH [2, 8]: pH 3.2
pH [2, 9]: pH 3.2
Storage stability ([2]; protected from moisture, […], USP or EP testing): stability up to three years
SMILES: Cc1ncc(C[n+]2csc(CCO)c2C)c(N)n1 [Thiamine hydrochloride monohydrate]
Hygroscopicity ([1]; hydrochloride monohydrate): hygroscopic

SMILES: Cc1ncc(C[n+]2csc(CCO)c2C)c(N)n1 [Thiamine hydrochloride]
Solubility in water [3]: high solubility in water

SMILES: Cc1ncc(C[n+]2csc(CCO)c2C)c(N)n1 [anhydrous form, Thiamine hydrochloride]
Hygroscopicity ([1]; hydrochloride): readily absorbs moisture to form the monohydrate and hemihydrate
